Source: ChEMBL document CHEMBL1149751, “Bioactive constituents from the twigs of Asimina parviflora” (J Nat Prod, 1992)
In brackets after ≈: the same amount, converted by molar mass.

Legend:
[1] = Toxicity in brine shrimp; assay type: organism-based; conditions: artemia, in vivo
A549 = assay: Cytotoxicity against human A549 cells after 7 days; assay type: functional; conditions: for EC50: Homo sapiens, A549, 168 h, read-out: ED50 (the source's name)
MCF7 = assay: Cytotoxicity against human MCF7 cells after 7 days; assay type: functional; conditions: MCF7, 168 h, read-out: ED50 (the source's name)
HT-29 = assay: Cytotoxicity against human HT-29 cells after 7 days; assay type: functional; conditions: for EC50: Homo sapiens, HT-29, 168 h, read-out: ED50 (the source's name)

Row | SMILES | LC50 [1] [µg/mL] | EC50 (A549) [µg/mL] | EC50 (MCF7) [µg/mL] | EC50 (HT-29) [µg/mL] | ED50 (A549) [×10⁻⁴ ug/ml] | ED50 (HT-29) [×10⁻¹⁵ ug/ml]
1 | CCCCCCCCCCCCCCC/C=C\CCCCC(N)=O | 2.45 (≈ 7.26 µM) | 3.16 (≈ 9.36 µM) | 2.91 (≈ 8.62 µM) | < 0.01 |  | 
2 | COc1c(OC)c2c(C)cc3c(O)cccc3c2[nH]c1=O [ASIMICILONE] | 2.15 (≈ 7.54 µM) | 2.13 (≈ 7.47 µM) | 7.22 (≈ 25.3 µM) | 3.25 (≈ 11.4 µM) |  | 
3 | CCCCCCCCCCC(O)C1CCC(C2CCC(C(O)CCCCCCCC[C@H](O)CC3=C[C@@H](C)OC3=O)O2)O1 (stereo partly drawn) [ASIMICIN] |  |  |  |  | 8.43 | <1
4 | CCCCCCCCCC[C@@H](O)[C@H]1CC[C@H]([C@H]2CC[C@H]([C@H](O)CCCCCCCCCC[C@@H](O)CC3=C[C@H](C)OC3=O)O2)O1 [ASIMICIN] | 0.025 (≈ 0.0401 µM) |  |  |  |  | 
5 | COc1cccc2c1C(=O)c1c(O)c3c(c(O)c1C2=O)C[C@@](O)(C(=O)CO)C[C@@H]3O[C@H]1C[C@H](N)[C@H](O)[C@H](C)O1 [DOXORUBICIN] | 0.088 (≈ 0.162 µM) |  | 0.231 (≈ 0.425 µM) | 0.00445 (≈ 0.00819 µM) | 5.04 | 
6 | CC[C@H](CC[C@@H](C)[C@H]1CC[C@H]2[C@@H]3CC=C4C[C@@H](O[C@@H]5O[C@H](CO)[C@@H](O)[C@H](O)[C@H]5O)CC[C@]4(C)[C@H]3CC[C@]12C)C(C)C [SITOGLUSIDE] | 0.14 (≈ 0.243 µM) | 4.73 (≈ 8.2 µM) | 44.4 (≈ 77 µM) | 0.444 (≈ 0.77 µM) |  | 
7 | COc1cc([C@H]2OC[C@H]3[C@@H]2CO[C@@H]3c2cc(OC)c(O)c(OC)c2)cc(OC)c1O [SYRINGARESINOL] | 0.65 (≈ 1.55 µM) | 13.9 (≈ 33.3 µM) | 30.3 (≈ 72.4 µM) | 0.227 (≈ 0.542 µM) |  | 
